The text below walks through data of PMC6237192 (European journal of medicinal chemistry, 2018).

One test has as its system MT4 cells. The test can be described thus: Cytotoxicity. The settings on record: ratio of CC50 to IC50. Type of test: cell-based, human.
A further test relates to HIV-1NL4-3 (subtype B). The test can be described thus: Antiviral activity in MT-4 human T-lymphoid cells exposed to HIV-1NL4-3. The format is cell-based. The settings on record: Human immunodeficiency virus 1, MT4, in Homo sapiens.

As to `COc1ccc(S(=O)(=O)N(CC(C)C)C[C@@H](O)[C@H](Cc2ccccc2)NC(=O)c2ccc3c(c2)[C@@H](NC(=O)OC(C)(C)C)CCS3(=O)=O)cc1` [Inhibitor 4e, tert-Butyl ((S)-6-(((2S,3R)-3-hydroxy-4-((N-isobutyl-4-methoxyphenyl)sulfonamido)-1-phenylbutan-2-yl)carbamoyl)-1,1-dioxidothiochroman-4-yl)carbamate], the “Selectivity Index” value in the test with MT4 cells is >2128.
The IC50 is the point on the concentration scale where inhibition reaches its midpoint. Lower therefore signals greater potency. Regarding `CC(C)CN(C[C@@H](O)[C@H](Cc1ccccc1)NC(=O)O[C@H]1CCOC1)S(=O)(=O)c1ccc(N)cc1` [amprenavir], in the test with HIV-1NL4-3 (subtype B), half-maximal inhibition (IC50) required 30 nM.
